Test results as given in patent US20250339391A1, “METHODS FOR EFFECTIVE MANAGEMENT OF PAIN” (South Rampart Pharma, Inc., priority 2024, published 2025).
“Also recorded” adds a separate entry of the source.

Assays:
male Sprague-Dawley rats = conditions: rat, in vivo
Protocol: 1) Dose-Range-Finding Oral Toxicity Study with SRP-001 in Sprague-Dawley Rats (non-GLP) As part of a two-phase study, the maximum tolerated dose (MTD) of SRP-001 when administered via gavage once to Sprague-Dawley Rats using an ascending/descending dose design (Calvert Labs/Altasciences, Scott Township, PA USA). A total of 12 male Sprague-Dawley rats (3/dose group), approximately 8-9 weeks old and weighing 245-307 g, were administered single doses of […], 1000, 1500, or 2000 mg/kg SRP-001. Mortality/morbidity was performed twice daily and once prior to scheduled sacrifice. Clinical observations were evaluated prior to each dose administration and approximately 1-3 h post-dose, once daily on non-dosing days and additionally as needed. Body weights were recorded for animals in Groups 1-4 prior to randomization/selection, each dose administration, and scheduled sacrifice on day 3. Food consumption was recorded on day 3. […] Based on the results of this study, doses for the second phase were selected.

Beagle dogs [1] = assay: Dose-range-finding oral toxicity study in Beagle dogs, Phase I (non-GLP); type: in vivo, dog
Protocol: 3) A Dose-Range-Finding and 7-day Repeat-Dose Oral Toxicity Study of SRP-001 in Beagle dogs (Non-GLP) Two beagle dogs (1/sex) were administered 30, 100, 250, or 500 mg/kg SRP-001. […] After a period of at least 2 d (minimum of 44 h) following the previous dose of test article, additional dose levels of SRP-001, as indicated above, were administered by oral gavage to the same 2 dogs (1 male and 1 female). Each dose was based on the dog's most recent body weight. Mortality/morbidity was observed twice daily and once prior to scheduled sacrifice. Body weights were recorded prior to randomization/selection, prior to each dose administration, and prior to scheduled sacrifice. At scheduled sacrifice, a gross necropsy was performed, and the tissues were appropriately discarded. […] Doses for Phase II of the study were set based on Phase I results. The actual dose amounts selected for Phase II of the study were 0, 30, 100, or 300 mg/kg/d of SRP-001. These doses were administered once daily for seven consecutive days to 1 Beagle dog/sex/dose.

Beagle dogs [2] = conditions: dog, in vivo
Protocol: 8) A 28-day Oral Toxicity Study of SRP-001 in Beagle Dogs with a 14-day Recovery (GLP study) SRP-001 was supplied by Olon Ricerca Bioscience as an off-white powder. The test article was then prepared into dosing suspensions for oral administration via gavage (Calvert Labs/Altasciences, Scott Township, PA USA). Thirty-two experimentally naïve Beagle dogs (16 males and 16 females), 8-9 months old and weighing 6.7-10.5 kg for males and females at the outset of the study, were administered 0, 165, 330, or 495 mg/kg/d. Animals were dosed three times daily (3-5 h between doses) for 28 consecutive days. Prior to this dosing schedule, the dosing was initiated with once daily dosing at 0, 100, 300, or 900 mg/kg at a dose volume of 5 to 10 ml/kg. Due to adverse clinical signs noted following dosing of all groups at a dose volume of 10 ml/kg, dosing of the animals was suspended on day 2 for males and day 1 for females. The study was restarted with T.I.D. dosing in lower dose volume to reduce vehicle-related toxicity.
In-life data from the initial start of the study using once daily dosing were not included in the report but are maintained in the study file. Following the restart of the study, the study was conducted as follows. Mortality/morbidity was performed twice daily and once prior to the scheduled sacrifice. Animals were observed prior to each dose administration and 1-3 h after each dose administration. Animals were also observed once daily on non-dosing days and once prior to scheduled sacrifice. Body weights were recorded prior to randomization/selection, prior to the first dose administration on day 1 and weekly thereafter. Food consumption was determined daily. Ophthalmology examinations and electrocardiograms were performed before treatment initiation and during the last week of dosing. Blood for evaluation of hematology, coagulation and clinical chemistry and urine for urinalysis was collected prior to treatment initiation and on days 29 and 43. Blood for toxicokinetic evaluation was collected at selected timepoints on days 1 and 28. All surviving animals were sacrificed on day 29 or day 43. Selected tissues were harvested at necropsy, selected organs weighed, and selected tissues evaluated microscopically.

[3] = test system: conscious male Sprague-Dawley rats; assay: Pulmonary function evaluation in conscious male Sprague-Dawley rats (GLP); type: in vivo, rat; conditions: 220, 440 and 660 mg/kg oral
Protocol: The potential effects of orally administered SRP-001 on respiratory rate, tidal volume, and minute volume in conscious male Sprague-Dawley rats was studied in 24 male rats. The rodents were trained for two days in the head-out plethysmograph chamber for 15-17 min each prior to the experiment. On the day of dosing, each animal was weighed and placed in the plethysmograph chamber, and baseline respiratory parameters were obtained for 5 min following an approximately 5-min stabilization period. The rats were then removed from the chamber and dosed by oral gavage. Three groups of six male Sprague-Dawley rats each were orally administered SRP-001 at a single dose of 220, 440, or 660 mg/kg at a dose volume of 10 mL/kg. […] Following dosing, each animal was returned to its designated plethysmograph chamber, and the respiratory parameters were recorded at 30 min (±5 min), 2, 4, and 6 h (±15 min). Animals were allowed to stabilize in the plethysmograph chamber for at least 5 min before each reading was taken. The following parameters were acquired, recorded, and analyzed using Ponemah Physiology Platform (Ponemah v.5.20 Pulmonary); Respiratory rate, Tidal Volume, and Minute Volume, Values for the test article treated group were compared to the vehicle control values using a two-way repeated measures ANOVA followed by a Bonferroni Multiple Comparison Test (SigmaStat, v. 4.0). […]

## CCN(CC)C(=O)c1ccccc1S(=O)(=O)NCC(=O)Nc1ccc(O)cc1 [SRP-001, N,N-diethyl-2-[[2-(4-hydroxyanilino)-2-oxo-ethyl]sulfamoyl]benzamide]
Male Sprague-Dawley rats
  clinical observations after single dose: Nearly all the animals appeared normal following dosing
  mortality after single doses: did not result in any mortality
Beagle dogs [1]; 30, 100, 250 or 500 mg/kg
  body weight and food consumption: No test article-related effects
Beagle dogs [1]; 30, 100, 250 or 500 mg/kg oral gavage
  clinical signs: Loose feces and emesis were observed following most doses
Beagle dogs [2]; both, Beagle, 14 d
  reversibility after 14-d recovery: nearly all SRP-001-related changes observed on day 29 were reversible
Beagle dogs [2]; both, Beagle, 28 d
  no-adverse-effect level: 330 mg/kg/day
Beagle dogs [2]; both, Beagle, po, 28 d
  doses without treatment-related adverse effects: up to 330 mg/kg/day
Beagle dogs [2]
  hematology finding: regenerative anemia
[3]
  effects on respiratory rate, tidal volume, minute volume: no effects on pulmonary function or cardio-telemetry; also recorded: did not induce any significant effects
